Laboratory results taken from patent EP0004335A2, “Prostacyclin analogs, process and intermediates for their preparation and their use as medicines” (HOECHST AKTIENGESELLSCHAFT, priority 1978, dated 1979).

tested on: durch Arachidonsäure in Humanblut (in vitro) induzierten Thrombocytenaggregation; assay: Inhibition of arachidonic acid-induced platelet aggregation in human blood (in vitro); assay type: cell-based; conditions: Konzentration, die eine Aggregation von 50% der vorhandenen Thrombocyten verhindert
Source text: Die Thrombocyten aggregationshemmende Wirkung der erfindungsgemäßen Verbindungen wurde an der durch Arachidonsäure in Humanblut (in vitro) induzierten Thrombocytenaggregation ermittelt. In der folgenden Tabelle ist die Konzentration an dem jeweiligen Prostacyclin-Derivat angegeben, die eine Aggregation von 50% der vorhandenen Thrombocyten verhindert (IC50).

In order of rising IC50:
1. CCOCC(C)(C)C(O)C=CC1C(O)CC2OC(=CCCCC(=O)O)CC21 (stereo not drawn) [Beispiel 3 b), Natriumsalz des 16,16-Dimethyl-18-oxa-PGI2]  540 nM
2. COCCC(C)(C)C(O)C=CC1C(O)CC2OC(=CCCCC(=O)O)CC21 (stereo not drawn) [Beispiel 3 a), Kaliumsalz des 16,16-Dimethyl-19-oxa-PGI2]  1200 nM
3. COC(=O)CCCC=C1CC2C(CC(O)C2C=CC(O)C(C)(C)OC2CCCCC2)O1 (stereo not drawn) [Beispiel 2 e), 16-Cyclohexyloxy-16-methyl-18,19-20-trinor-PGI -methylester]  10000 nM
